Experiment [1] concerns the target T1, full-length beta-Catenin (Uniprot ID P35222) (Homo sapiens, UniProt P35222).
T1 construct: 10 nM full-length beta-Catenin (Uniprot ID P35222)
T1 sequence (P35222 1-781): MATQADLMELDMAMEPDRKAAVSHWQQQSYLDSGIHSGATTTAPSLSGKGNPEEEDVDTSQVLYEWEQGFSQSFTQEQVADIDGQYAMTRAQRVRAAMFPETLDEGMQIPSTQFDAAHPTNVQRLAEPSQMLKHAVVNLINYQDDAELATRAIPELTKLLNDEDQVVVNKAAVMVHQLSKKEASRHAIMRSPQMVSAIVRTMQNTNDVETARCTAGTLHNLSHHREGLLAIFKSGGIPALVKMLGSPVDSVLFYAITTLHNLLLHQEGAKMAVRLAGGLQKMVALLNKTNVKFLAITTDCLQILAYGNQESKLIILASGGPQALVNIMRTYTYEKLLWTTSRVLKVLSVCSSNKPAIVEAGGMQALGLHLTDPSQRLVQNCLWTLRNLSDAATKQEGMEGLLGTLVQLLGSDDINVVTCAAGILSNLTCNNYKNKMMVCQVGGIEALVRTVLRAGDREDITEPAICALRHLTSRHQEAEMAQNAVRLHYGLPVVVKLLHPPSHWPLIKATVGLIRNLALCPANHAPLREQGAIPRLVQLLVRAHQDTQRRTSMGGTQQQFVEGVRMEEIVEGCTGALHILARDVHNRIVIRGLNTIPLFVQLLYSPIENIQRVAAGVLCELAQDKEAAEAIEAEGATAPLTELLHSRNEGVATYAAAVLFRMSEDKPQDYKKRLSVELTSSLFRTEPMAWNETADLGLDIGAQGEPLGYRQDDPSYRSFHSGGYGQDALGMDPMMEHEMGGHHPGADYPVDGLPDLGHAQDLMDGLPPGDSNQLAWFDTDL
The experiment in a line: Fluorescence polarization IC50 (beta-catenin / 5FAM-TCF4 10-53 competition). The settings on record: fluorescence polarization; read-out: beta-Catenin FP IC50. It counts as binding.

The target in experiment [2] is T2, beta-catenin/TCF4 engagement (Homo sapiens, UniProt P35222).
T2 construct: expressed in transfected cells; host or cells: HEK293
T2 sequence (P35222 1-781): T1 sequence (P35222 1-781)
Kind of experiment: Nano-BRET target engagement assay (B-cat-Halo & TCF4-Luc in HEK293 cells). The settings on record: absolute IC50; read-out: NanoBRET Abs IC50. It counts as cell-based.

From patent US20240116985A1, “STAPLED PEPTIDES AND METHODS THEREOF” (priority 2020, published 2024) come the findings set out here.

The term IC50 denotes the concentration that inhibits the measured activity by half.

With `CC(=O)N1CCC[C@]12CC=CCCCC1(CCCC=CCCCOC(=O)N3CC[C@@](C(=O)N[C@@H](Cc4ccsc4)C(=O)N[C@@H](Cc4csc5ccccc45)C(=O)N[C@@H](CCC(N)=O)C(N)=O)(C3)NC(=O)[C@H](CC(C)C)NC(=O)[C@H](Cc3ccccc3)NC(=O)[C@H](C)NC(=O)[C@H](C)NC(=O)[C@H](CN(CC(=O)O)C(=O)CCN(C)C)NC(=O)[C@H](CC(=O)O)NC1=O)NC(=O)[C@H](CC(C)(C)C)NC(=O)[C@H](CC(=O)O)NC2=O` (stereo partly drawn) [I-2234, Ac-PL3-Asp-Npg-B5-Asp-[Me2NPr]GA-Ala-Ala-Phe-Leu-PyrS2-3Thi-BztA-Gln-NH2], the IC50 in experiment [1] is 22 nM; in experiment [2], above 20000 nM.

With `CC(=O)N1CCC[C@]12CC=CCCCC1(CCCC=CCCCOC(=O)N3CC[C@@](C(=O)N[C@@H](Cc4ccsc4)C(=O)N[C@@H](Cc4csc5ccccc45)C(=O)N[C@@H](CCC(N)=O)C(N)=O)(C3)NC(=O)[C@H](CC(C)C)NC(=O)[C@H](Cc3ccccc3)NC(=O)[C@H](C)NC(=O)[C@H](C)NC(=O)[C@H](CN(CC(=O)O)C(=O)C3CCN(C)CC3)NC(=O)[C@H](CC(=O)O)NC1=O)NC(=O)[C@H](CC(C)(C)C)NC(=O)[C@H](CC(=O)O)NC2=O` (stereo partly drawn) [I-2235, Ac-PL3-Asp-Npg-B5-Asp-[4AcMePip]GA-Ala-Ala-Phe-Leu-PyrS2-3Thi-BztA-Gln-NH2], the IC50 in experiment [1] is 40 nM; in experiment [2], above 20000 nM.

Turning to `CC(=O)N1CCC[C@]12CC=CCCCC1(CCCC=CCCCOC(=O)N3CC[C@@](C(=O)N[C@@H](Cc4ccsc4)C(=O)N[C@@H](Cc4csc5ccccc45)C(=O)N[C@@H](CCC(N)=O)C(N)=O)(C3)NC(=O)[C@H](CC(C)C)NC(=O)[C@H](Cc3ccccc3)NC(=O)[C@H](C)NC(=O)[C@H](C)NC(=O)[C@H](CN(CC(=O)O)C(=O)Cc3ccc(C(F)(F)F)cc3)NC(=O)[C@H](CC(=O)O)NC1=O)NC(=O)[C@H](CC(C)(C)C)NC(=O)[C@H](CC(=O)O)NC2=O` (stereo partly drawn) [I-2236, Ac-PL3-Asp-Npg-B5-Asp-[4CF3PhAc]GA-Ala-Ala-Phe-Leu-PyrS2-3Thi-BztA-Gln-NH2], the results for the half-maximal inhibitory concentration (IC50) in experiment [1] and in experiment [2] were 23 nM and 15300 nM, respectively.

Consider `CC(=O)N1CCC[C@]12CC=CCCCC1(CCCC=CCCCOC(=O)N3CC[C@@](C(=O)N[C@@H](Cc4ccsc4)C(=O)N[C@@H](Cc4csc5ccccc45)C(=O)N[C@@H](CCC(N)=O)C(N)=O)(C3)NC(=O)[C@H](CC(C)C)NC(=O)[C@H](Cc3ccccc3)NC(=O)[C@H](C)NC(=O)[C@H](C)NC(=O)[C@H](CN(CC(=O)O)C(=O)c3ccccn3)NC(=O)[C@H](CC(=O)O)NC1=O)NC(=O)[C@H](CC(C)(C)C)NC(=O)[C@H](CC(=O)O)NC2=O` (stereo partly drawn) [I-2237, Ac-PL3-Asp-Npg-B5-Asp-[Pic]GA-Ala-Ala-Phe-Leu-PyrS2-3Thi-BztA-Gln-NH2], for which the results for the IC50 in experiment [1] and in experiment [2] were 5 nM and 24300 nM, respectively.

Turning to `CC(=O)N1CCC[C@]12CC=CCCCC1(CCCC=CCCCOC(=O)N3CC[C@@](C(=O)N[C@@H](Cc4ccsc4)C(=O)N[C@@H](Cc4csc5ccccc45)C(=O)N[C@@H](CCC(N)=O)C(N)=O)(C3)NC(=O)[C@H](CC(C)C)NC(=O)[C@H](Cc3ccccc3)NC(=O)[C@H](C)NC(=O)[C@H](C)NC(=O)[C@H](CN(CC(=O)O)C(=O)CN3CCOCC3)NC(=O)[C@H](CC(=O)O)NC1=O)NC(=O)[C@H](CC(C)(C)C)NC(=O)[C@H](CC(=O)O)NC2=O` (stereo partly drawn) [I-2239, Ac-PL3-Asp-Npg-B5-Asp-[MorphAc]GA-Ala-Ala-Phe-Leu-PyrS2-3Thi-BztA-Gln-NH2], the concentration for half-maximal inhibition (IC50) in experiment [1] came to 10 nM; in experiment [2], 31900 nM.

Turning to `CC(=O)N1CCC[C@]12CC=CCCCC1(CCCC=CCCCOC(=O)N3CC[C@@](C(=O)N[C@@H](Cc4ccsc4)C(=O)N[C@@H](Cc4csc5ccccc45)C(=O)N[C@@H](CCC(N)=O)C(N)=O)(C3)NC(=O)[C@H](CC(C)C)NC(=O)[C@H](Cc3ccccc3)NC(=O)[C@H](C)NC(=O)[C@H](C)NC(=O)[C@H](CN(CC(=O)O)C(=O)CN3CCN(C)CC3)NC(=O)[C@H](CC(=O)O)NC1=O)NC(=O)[C@H](CC(C)(C)C)NC(=O)[C@H](CC(=O)O)NC2=O` (stereo partly drawn) [I-2240, Ac-PL3-Asp-Npg-B5-Asp-[MePipAc]GA-Ala-Ala-Phe-Leu-PyrS2-3Thi-BztA-Gln-NH2], the IC50 was 5 nM in experiment [1] and above 20000 nM in experiment [2].

With `CC(=O)N1CCC[C@]12CC=CCCCC1(CCCC=CCCCOC(=O)N3CC[C@@](C(=O)N[C@@H](Cc4ccsc4)C(=O)N[C@@H](Cc4csc5ccccc45)C(=O)N[C@@H](CCC(N)=O)C(N)=O)(C3)NC(=O)[C@H](CC(C)C)NC(=O)[C@H](Cc3ccccc3)NC(=O)[C@H](C)NC(=O)[C@H](C)NC(=O)[C@H](CN(CC(=O)O)C(=O)Cc3c(F)c(F)c(F)c(F)c3F)NC(=O)[C@H](CC(=O)O)NC1=O)NC(=O)[C@H](CC(C)(C)C)NC(=O)[C@H](CC(=O)O)NC2=O` (stereo partly drawn) [I-2241, Ac-PL3-Asp-Npg-B5-Asp-[PfPhAc]GA-Ala-Ala-Phe-Leu-PyrS2-3Thi-BztA-Gln-NH2], the half-inhibitory concentration (IC50) in experiment [1] was 18 nM; in experiment [2] it was 17700 nM.

For the compound `CC(=O)N1CCC[C@]12CC=CCCCC1(CCCC=CCCCOC(=O)N3CC[C@@](C(=O)N[C@@H](Cc4ccsc4)C(=O)N[C@@H](Cc4csc5ccccc45)C(=O)N[C@@H](CCC(N)=O)C(N)=O)(C3)NC(=O)[C@H](CC(C)C)NC(=O)[C@H](Cc3ccccc3)NC(=O)[C@H](C)NC(=O)[C@H](C)NC(=O)[C@H](CN(CC(=O)O)C(=O)c3c(F)c(F)c(F)c(F)c3F)NC(=O)[C@H](CC(=O)O)NC1=O)NC(=O)[C@H](CC(C)(C)C)NC(=O)[C@H](CC(=O)O)NC2=O` (stereo partly drawn) [I-2242, Ac-PL3-Asp-Npg-B5-Asp-[PfBz]GA-Ala-Ala-Phe-Leu-PyrS2-3Thi-BztA-Gln-NH2], the results for the IC50 in experiment [1] and in experiment [2] were 13 nM and 21400 nM, respectively.

In the case of `CC(=O)N1CCC[C@]12CC=CCCCC1(CCCC=CCCCOC(=O)N3CC[C@@](C(=O)N[C@@H](Cc4ccsc4)C(=O)N[C@@H](Cc4csc5ccccc45)C(=O)N[C@@H](CCC(N)=O)C(N)=O)(C3)NC(=O)[C@H](CC(C)C)NC(=O)[C@H](Cc3ccccc3)NC(=O)[C@H](C)NC(=O)[C@H](C)NC(=O)[C@H](CCN(CC(=O)O)C(=O)CCCN(C)C)NC(=O)[C@H](CC(=O)O)NC1=O)NC(=O)[C@H](CC(C)(C)C)NC(=O)[C@H](CC(=O)O)NC2=O` (stereo partly drawn) [I-2243, Ac-PL3-Asp-Npg-B5-Asp-[NdiMeButC]GAbu-Ala-Ala-Phe-Leu-PyrS2-3Thi-BztA-Gln-NH2], the half-inhibitory concentration (IC50) in experiment [1] was determined as 15 nM; in experiment [2], 25200 nM.

`CC(=O)N1CCC[C@]12CC=CCCCC1(CCCC=CCCCOC(=O)N3CC[C@@](C(=O)N[C@@H](Cc4ccsc4)C(=O)N[C@@H](Cc4csc5ccccc45)C(=O)N[C@@H](CCC(N)=O)C(N)=O)(C3)NC(=O)[C@H](CC(C)C)NC(=O)[C@H](Cc3ccccc3)NC(=O)[C@H](C)NC(=O)[C@H](C)NC(=O)[C@H](CCN(CC(=O)O)C(=O)C3CCN(C)CC3)NC(=O)[C@H](CC(=O)O)NC1=O)NC(=O)[C@H](CC(C)(C)C)NC(=O)[C@H](CC(=O)O)NC2=O` (stereo partly drawn) [I-2245, Ac-PL3-Asp-Npg-B5-Asp-[4AcMePip]GAbu-Ala-Ala-Phe-Leu-PyrS2-3Thi-BztA-Gln-NH2]: the IC50 in experiment [1] was 26 nM; in experiment [2], above 20000 nM.

For the compound `CC(=O)N1CCC[C@]12CC=CCCCC1(CCCC=CCCCOC(=O)N3CC[C@@](C(=O)N[C@@H](Cc4ccsc4)C(=O)N[C@@H](Cc4csc5ccccc45)C(=O)N[C@@H](CCC(N)=O)C(N)=O)(C3)NC(=O)[C@H](CC(C)C)NC(=O)[C@H](Cc3ccccc3)NC(=O)[C@H](C)NC(=O)[C@H](C)NC(=O)[C@H](CCN(CC(=O)O)C(=O)Cc3ccc(C(F)(F)F)cc3)NC(=O)[C@H](CC(=O)O)NC1=O)NC(=O)[C@H](CC(C)(C)C)NC(=O)[C@H](CC(=O)O)NC2=O` (stereo partly drawn) [I-2246, Ac-PL3-Asp-Npg-B5-Asp-[4CF3PhAc]GAbu-Ala-Ala-Phe-Leu-PyrS2-3Thi-BztA-Gln-NH2], the IC50 in experiment [1] was 27 nM; in experiment [2], 12900 nM.

With `CC(=O)N1CCC[C@]12CC=CCCCC1(CCCC=CCCCOC(=O)N3CC[C@@](C(=O)N[C@@H](Cc4ccsc4)C(=O)N[C@@H](Cc4csc5ccccc45)C(=O)N[C@@H](CCC(N)=O)C(N)=O)(C3)NC(=O)[C@H](CC(C)C)NC(=O)[C@H](Cc3ccccc3)NC(=O)[C@H](C)NC(=O)[C@H](C)NC(=O)[C@H](CCN(CC(=O)O)C(=O)c3ccccn3)NC(=O)[C@H](CC(=O)O)NC1=O)NC(=O)[C@H](CC(C)(C)C)NC(=O)[C@H](CC(=O)O)NC2=O` (stereo partly drawn) [I-2247, Ac-PL3-Asp-Npg-B5-Asp-[Pic]GAbu-Ala-Ala-Phe-Leu-PyrS2-3Thi-BztA-Gln-NH2], the IC50 in experiment [1] amounted to 8 nM; in experiment [2] it was 5900 nM.
